# Experimental data taken from ChEMBL document CHEMBL1121434, “4-[(Aminoalkyl)amino]-1,2-dimethoxynaphthalenes as antimalarial agents” (J Med Chem, 1980).
# Calls of active or inactive are those of the source. The rule behind the calls is not given here.
# Tests used:
# Monkey [1] = assay: Tested for radical curative activity in monkeys infected with Plasmodium cynomolgi at 10.0 (mg/kg)/day dose; C = curative; assay type: functional, organism-based; settings: Cercopithecidae
# Monkey [2] = assay: Tested for radical curative activity in monkeys infected with Plasmodium cynomolgi at 1.0 (mg/kg)/day dose; I = inactive; assay type: functional, organism-based; settings: Cercopithecidae
# Monkey [3] = assay: Tested for radical curative activity in monkeys infected with Plasmodium cynomolgi at 10 (mg/kg)/day dose; T = toxic; assay type: organism-based; settings: cercopithecidae, in vivo
# Monkey [4] = assay: Tested for radical curative activity in monkeys infected with Plasmodium cynomolgi at 1 (mg/kg)/day dose; I = inactive; assay type: functional, organism-based; settings: Cercopithecidae
# Monkey [5] = assay: Tested for radical curative activity in monkeys infected with Plasmodium cynomolgi at 0.316 (mg/kg)/day dose; I = inactive; assay type: functional, organism-based; settings: Cercopithecidae
# Monkey [6] = assay: Tested for radical curative activity in monkeys infected with Plasmodium cynomolgi I = inactive; assay type: functional, organism-based; settings: Cercopithecidae
compound,measurement,setting,value
COc1cc(NCCCC(C)N)c2cc(Br)ccc2c1OC (stereo not drawn),Activity,Monkey [1],Curative
same,Activity,Monkey [2],inactive
COc1cc(NC(C)CCCN)c2ccccc2c1OC (stereo not drawn),Activity,Monkey [2],inactive
COc1cc(NCCCC(C)N)c2ccccc2c1OC (stereo not drawn),Activity,Monkey [2],inactive
CCC(CCCN)Nc1cc(OC)c(OC)c2ccccc12 (stereo not drawn),Activity,Monkey [3],Toxic
same,Activity,Monkey [4],inactive
same,Activity,Monkey [5],inactive
CCN(CC)CCCC(C)Nc1cc(OC)c(OC)c2ccccc12 (stereo not drawn),Activity,Monkey [6],inactive
